Assay results reported in patent publication US9340600B2 (Indiana University Research and Technology Corporation, priority 2012, dated 2016).
*1 amine or outer side, *2 acyl side, *3 side chain or, on linkers, in order; H or OH if unused. Where a SMILES comes first, the peptide text is derived from it. Side-chain parts run from the residue outwards. [ ]: non-standard residue; d: D form. The star is where a group is joined. γGlu = O=C(O)[C@H](CCC(=O)[*:2])N[*:1]; Met(O2) = CS(=O)(=O)CC[C@H](N)C(=O)O; Palmitoyl = CCCCCCCCCCCCCCCC(=O)*; hSer = N[C@@H](CCO)C(=O)O; Aib = CC(C)(N)C(=O)O

How the values were obtained:
Assay type in all cases: cell-based
[1] = target: T1, GIP receptor (Homo sapiens, UniProt P48546); experiment: cAMP induction, firefly luciferase-based reporter assay in HEK293 cells co-transfected with GIP receptor; conditions: EC50 at GIP Receptor
T1 construct: expressed in transfected cells; host or cells: HEK293
T1 sequence (P48546 22-466): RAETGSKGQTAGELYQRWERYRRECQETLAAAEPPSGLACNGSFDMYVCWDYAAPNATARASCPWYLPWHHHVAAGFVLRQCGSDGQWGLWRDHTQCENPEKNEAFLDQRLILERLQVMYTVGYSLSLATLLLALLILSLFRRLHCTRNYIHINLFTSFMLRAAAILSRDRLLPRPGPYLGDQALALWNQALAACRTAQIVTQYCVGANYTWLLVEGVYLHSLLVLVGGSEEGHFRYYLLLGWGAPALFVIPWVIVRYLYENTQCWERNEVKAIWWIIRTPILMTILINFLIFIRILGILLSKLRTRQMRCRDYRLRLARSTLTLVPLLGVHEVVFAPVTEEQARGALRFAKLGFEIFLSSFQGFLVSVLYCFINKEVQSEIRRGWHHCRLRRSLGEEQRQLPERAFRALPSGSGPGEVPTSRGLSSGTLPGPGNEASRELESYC
From the text: (§1) This example describes an exemplary method of testing the biological activity of the peptides of the present disclosures, which method involves assaying cAMP synthesis.

[2] = target: T2, GLP-1 receptor (Homo sapiens, UniProt P43220); experiment: cAMP induction, firefly luciferase-based reporter assay in HEK293 cells co-transfected with GLP-1 receptor; conditions: EC50 at GLP-1 Receptor
T2 construct: expressed in transfected cells; host or cells: HEK293
T2 sequence (P43220 24-463): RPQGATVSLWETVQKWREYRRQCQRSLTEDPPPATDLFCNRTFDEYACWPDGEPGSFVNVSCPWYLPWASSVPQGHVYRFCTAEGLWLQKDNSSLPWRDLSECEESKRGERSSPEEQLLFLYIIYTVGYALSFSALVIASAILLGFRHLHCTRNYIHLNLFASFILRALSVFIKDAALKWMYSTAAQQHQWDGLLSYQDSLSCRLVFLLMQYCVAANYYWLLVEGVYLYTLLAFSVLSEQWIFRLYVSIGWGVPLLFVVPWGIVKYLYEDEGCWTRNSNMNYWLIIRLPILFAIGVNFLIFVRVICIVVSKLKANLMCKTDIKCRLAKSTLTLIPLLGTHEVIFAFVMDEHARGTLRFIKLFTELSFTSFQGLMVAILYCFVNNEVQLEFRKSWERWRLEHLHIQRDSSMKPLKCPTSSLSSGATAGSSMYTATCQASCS
From the text: as §1

[3] = target: T3, glucagon receptor (Homo sapiens, UniProt P47871); experiment: cAMP induction, firefly luciferase-based reporter assay in HEK293 cells co-transfected with glucagon receptor; conditions: EC50 at Glucagon Receptor
T3 construct: expressed in transfected cells; host or cells: HEK293
T3 sequence (P47871 26-477): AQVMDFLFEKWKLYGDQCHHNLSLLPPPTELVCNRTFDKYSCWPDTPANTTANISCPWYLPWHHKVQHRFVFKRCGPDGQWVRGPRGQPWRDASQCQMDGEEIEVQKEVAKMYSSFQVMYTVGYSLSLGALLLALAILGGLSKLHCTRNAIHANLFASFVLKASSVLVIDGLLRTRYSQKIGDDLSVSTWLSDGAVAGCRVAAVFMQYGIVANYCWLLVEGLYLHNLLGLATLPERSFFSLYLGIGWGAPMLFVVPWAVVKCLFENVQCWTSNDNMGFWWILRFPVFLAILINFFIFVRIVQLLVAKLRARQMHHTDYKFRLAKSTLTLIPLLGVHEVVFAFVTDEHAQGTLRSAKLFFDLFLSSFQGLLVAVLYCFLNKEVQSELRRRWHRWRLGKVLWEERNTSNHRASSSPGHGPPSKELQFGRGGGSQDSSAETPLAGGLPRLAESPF
From the text: as §1

[4] = Table 5, analogs of SEQ ID NO: 10
[5] = Table 4, analogs of SEQ ID NO: 43 varying at position 3
[6] = Table 3, analogs of SEQ ID NO: 18 varying at position 3

Row | Structure (SMILES) | EC50 [1, 6] | EC50 [2, 6] | EC50 [3, 6] | further results
1 | CCCCCCCCCCCCCCCC(=O)N[C@@H](CCC(=O)NCCCC[C@H](NC(=O)[C@H](CC(=O)O)NC(=O)[C@H](CO)NC(=O)[C@@H](NC(=O)[C@H](Cc1ccccc1)NC(=O)[C@@H](NC(=O)CNC(=O)[C@H](CCC(N)=O)NC(=O)C(C)(C)NC(=O)[C@@H](N)Cc1c[nH]cn1)[C@@H](C)O)[C@@H](C)O)C(=O)N[C@@H](CO)C(=O)N[C@@H](CCCCN)C(=O)N[C@@H](Cc1ccc(O)cc1)C(=O)N[C@@H](CC(C)C)C(=O)N[C@@H](CC(=O)O)C(=O)N[C@@H](CCC(=O)O)C(=O)N[C@@H](CCCNC(=N)N)C(=O)N[C@@H](C)C(=O)N[C@@H](C)C(=O)N[C@@H](CCC(N)=O)C(=O)N[C@@H](CC(=O)O)C(=O)N[C@@H](Cc1ccccc1)C(=O)N[C@H](C(=O)N[C@@H](CCC(N)=O)C(=O)N[C@@H](Cc1c[nH]c2ccccc12)C(=O)N[C@@H](CC(C)C)C(=O)N[C@@H](CC(C)C)C(=O)N[C@@H](CC(=O)O)C(=O)N[C@@H](C)C(=O)NCC(=O)N1CCC[C@H]1C(=O)N[C@@H](CO)C(=O)N[C@@H](CO)C(=O)NCC(=O)N[C@@H](C)C(=O)N1CCC[C@H]1C(=O)N1CCC[C@H]1C(=O)N1CCC[C@H]1C(=O)N[C@@H](CO)C(N)=O)C(C)C)C(=O)O [compound 64] (H-H[Aib]QGTFTSDK([γGlu-Palmitoyl])SKYLDERAAQDFVQWLLDAGPSSGAPPPS-NH2) | – | – | – | EC50 [1, 4]: 0.019 nM; EC50 [2, 4]: 0.003 nM; EC50 [3, 4]: 0.002 nM
2 | CCCCCCCCCCCCCCCC(=O)N[C@@H](CCC(=O)NCCCC[C@H](NC(=O)[C@H](CC(=O)O)NC(=O)[C@H](CO)NC(=O)[C@@H](NC(=O)[C@H](Cc1ccccc1)NC(=O)[C@@H](NC(=O)CNC(=O)[C@H](CCO)NC(=O)C(C)(C)NC(=O)[C@@H](N)Cc1c[nH]cn1)[C@@H](C)O)[C@@H](C)O)C(=O)N[C@@H](CO)C(=O)N[C@@H](CCCCN)C(=O)N[C@@H](Cc1ccc(O)cc1)C(=O)N[C@@H](CC(C)C)C(=O)N[C@@H](CC(=O)O)C(=O)N[C@@H](CCC(=O)O)C(=O)N[C@@H](CCCNC(=N)N)C(=O)N[C@@H](C)C(=O)N[C@@H](C)C(=O)N[C@@H](CCC(N)=O)C(=O)N[C@@H](CC(=O)O)C(=O)N[C@@H](Cc1ccccc1)C(=O)N[C@H](C(=O)N[C@@H](CCC(N)=O)C(=O)N[C@@H](Cc1c[nH]c2ccccc12)C(=O)N[C@@H](CC(C)C)C(=O)N[C@@H](CC(C)C)C(=O)N[C@@H](CCC(=O)O)C(=O)NCC(=O)NCC(=O)N1CCC[C@H]1C(=O)N[C@@H](CO)C(=O)N[C@@H](CO)C(=O)NCC(=O)N[C@@H](C)C(=O)N1CCC[C@H]1C(=O)N1CCC[C@H]1C(=O)N1CCC[C@H]1C(=O)N[C@@H](CO)C(N)=O)C(C)C)C(=O)O [compound 48] (H-H[Aib][hSer]GTFTSDK([γGlu-Palmitoyl])SKYLDERAAQDFVQWLLEGGPSSGAPPPS-NH2) | – | – | – | EC50 [1, 5]: 0.004 nM; EC50 [2, 5]: 0.003 nM; EC50 [3, 5]: 0.016 nM
3 | CCCCCCCCCCCCCCCC(=O)N[C@@H](CCC(=O)NCCCC[C@H](NC(=O)[C@H](CC(=O)O)NC(=O)[C@H](CO)NC(=O)[C@@H](NC(=O)[C@H](Cc1ccccc1)NC(=O)[C@@H](NC(=O)CNC(=O)[C@H](CCS(C)(=O)=O)NC(=O)C(C)(C)NC(=O)[C@@H](N)Cc1c[nH]cn1)[C@@H](C)O)[C@@H](C)O)C(=O)N[C@@H](CO)C(=O)N[C@@H](CCCCN)C(=O)N[C@@H](Cc1ccc(O)cc1)C(=O)N[C@@H](CC(C)C)C(=O)N[C@@H](CCC(=O)O)C(=O)N[C@@H](CCC(=O)O)C(=O)N[C@@H](CCCNC(=N)N)C(=O)N[C@@H](C)C(=O)N[C@@H](C)C(=O)N[C@@H](CCC(N)=O)C(=O)N[C@@H](CCC(=O)O)C(=O)N[C@@H](Cc1ccccc1)C(=O)N[C@H](C(=O)N[C@@H](CCC(N)=O)C(=O)N[C@@H](Cc1c[nH]c2ccccc12)C(=O)N[C@@H](CC(C)C)C(=O)N[C@@H](CC(C)C)C(=O)N[C@@H](CCC(=O)O)C(=O)NCC(=O)NCC(=O)N1CCC[C@H]1C(=O)N[C@@H](CO)C(=O)N[C@@H](CO)C(=O)NCC(=O)N[C@@H](C)C(=O)N1CCC[C@H]1C(=O)N1CCC[C@H]1C(=O)N1CCC[C@H]1C(=O)N[C@@H](CO)C(N)=O)C(C)C)C(=O)O [compound 41] (H-H[Aib][Met(O2)]GTFTSDK([γGlu-Palmitoyl])SKYLEERAAQEFVQWLLEGGPSSGAPPPS-NH2; N-terminus assumed) | 0.067 nM | 0.002 nM | 0.592 nM | –
4 | CCCCCCCCCCCCCCCC(=O)N[C@@H](CCC(=O)NCCCC[C@H](NC(=O)[C@H](CC(=O)O)NC(=O)[C@H](CO)NC(=O)[C@@H](NC(=O)[C@H](Cc1ccccc1)NC(=O)[C@@H](NC(=O)CNC(=O)[C@H](CCCCNC(C)=O)NC(=O)C(C)(C)NC(=O)[C@@H](N)Cc1c[nH]cn1)[C@@H](C)O)[C@@H](C)O)C(=O)N[C@@H](CO)C(=O)N[C@@H](CCCCN)C(=O)N[C@@H](Cc1ccc(O)cc1)C(=O)N[C@@H](CC(C)C)C(=O)N[C@@H](CCC(=O)O)C(=O)N[C@@H](CCC(=O)O)C(=O)N[C@@H](CCCNC(=N)N)C(=O)N[C@@H](C)C(=O)N[C@@H](C)C(=O)N[C@@H](CCC(N)=O)C(=O)N[C@@H](CCC(=O)O)C(=O)N[C@@H](Cc1ccccc1)C(=O)N[C@H](C(=O)N[C@@H](CCC(N)=O)C(=O)N[C@@H](Cc1c[nH]c2ccccc12)C(=O)N[C@@H](CC(C)C)C(=O)N[C@@H](CC(C)C)C(=O)N[C@@H](CCC(=O)O)C(=O)NCC(=O)NCC(=O)N1CCC[C@H]1C(=O)N[C@@H](CO)C(=O)N[C@@H](CO)C(=O)NCC(=O)N[C@@H](C)C(=O)N1CCC[C@H]1C(=O)N1CCC[C@H]1C(=O)N1CCC[C@H]1C(=O)N[C@@H](CO)C(N)=O)C(C)C)C(=O)O [compound 39] (H-H[Aib]K(Ac)GTFTSDK([γGlu-Palmitoyl])SKYLEERAAQEFVQWLLEGGPSSGAPPPS-NH2; N-terminus assumed) | 0.336 nM | 0.01 nM | 0.543 nM | –
5 | CCCCCCCCCCCCCCCC(=O)N[C@@H](CCC(=O)NCCCC[C@H](NC(=O)[C@H](CC(=O)O)NC(=O)[C@H](CO)NC(=O)[C@@H](NC(=O)[C@H](Cc1ccccc1)NC(=O)[C@@H](NC(=O)CNC(=O)[C@H](CCC(=O)O)NC(=O)C(C)(C)NC(=O)[C@@H](N)Cc1c[nH]cn1)[C@@H](C)O)[C@@H](C)O)C(=O)N[C@@H](CO)C(=O)N[C@@H](CCCCN)C(=O)N[C@@H](Cc1ccc(O)cc1)C(=O)N[C@@H](CC(C)C)C(=O)N[C@@H](CCC(=O)O)C(=O)N[C@@H](CCC(=O)O)C(=O)N[C@@H](CCCNC(=N)N)C(=O)N[C@@H](C)C(=O)N[C@@H](C)C(=O)N[C@@H](CCC(N)=O)C(=O)N[C@@H](CCC(=O)O)C(=O)N[C@@H](Cc1ccccc1)C(=O)N[C@H](C(=O)N[C@@H](CCC(N)=O)C(=O)N[C@@H](Cc1c[nH]c2ccccc12)C(=O)N[C@@H](CC(C)C)C(=O)N[C@@H](CC(C)C)C(=O)N[C@@H](CCC(=O)O)C(=O)NCC(=O)NCC(=O)N1CCC[C@H]1C(=O)N[C@@H](CO)C(=O)N[C@@H](CO)C(=O)NCC(=O)N[C@@H](C)C(=O)N1CCC[C@H]1C(=O)N1CCC[C@H]1C(=O)N1CCC[C@H]1C(=O)N[C@@H](CO)C(N)=O)C(C)C)C(=O)O [compound 29] (H-H[Aib]EGTFTSDK([γGlu-Palmitoyl])SKYLEERAAQEFVQWLLEGGPSSGAPPPS-NH2; N-terminus assumed) | 0.017 nM | 0.008 nM | 1.5 nM | –
